Measurements published in PMC7913148, “Anti-Cholinesterase Combination Drug Therapy as a Potential Treatment for Alzheimer’s Disease” (Brain Sciences, 2021).
pIC50: −log10 of the molar value. Where a name gives a salt, the structure may show the parent alone.

How the values were obtained:
[1] = biological target: T1, Torpedo californica acetylcholinesterase (tcAChE) (Tetronarce californica, UniProt P04058); assay: biochemical; details: individual drug; Torpedo californica AChE (tc); read-out: Acetycholinesterase Inhibition (IC50)
T1 construct: purchased Sigma-Aldrich (Poole, UK)
T1 sequence (P04058 22-586): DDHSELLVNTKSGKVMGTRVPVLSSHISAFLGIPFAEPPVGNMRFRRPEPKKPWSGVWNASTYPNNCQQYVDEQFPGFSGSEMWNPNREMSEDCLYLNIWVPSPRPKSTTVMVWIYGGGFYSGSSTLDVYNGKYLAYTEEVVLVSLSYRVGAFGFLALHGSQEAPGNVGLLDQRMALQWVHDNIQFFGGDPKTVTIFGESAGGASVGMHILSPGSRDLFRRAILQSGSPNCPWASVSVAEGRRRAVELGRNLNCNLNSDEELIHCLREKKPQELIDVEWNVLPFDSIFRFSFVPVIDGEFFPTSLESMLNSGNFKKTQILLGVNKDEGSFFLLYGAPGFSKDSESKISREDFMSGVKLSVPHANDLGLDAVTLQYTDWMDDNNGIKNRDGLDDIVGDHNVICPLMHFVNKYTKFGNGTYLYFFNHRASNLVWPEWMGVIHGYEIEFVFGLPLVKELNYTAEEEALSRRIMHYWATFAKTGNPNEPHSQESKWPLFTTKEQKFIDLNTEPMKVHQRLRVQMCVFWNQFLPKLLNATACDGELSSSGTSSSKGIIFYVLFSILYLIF
Protocol: A microtiter plate version of the Ellman’s assay was used to determine the activity of human and Torpedo californica acetylcholinesterase enzymes [27]. Assays were undertaken in the presence of either individual drugs or two-drug combinations. Each assay data point within a 96-well plate contained 40 µL of 0.01 M DTNB, 46 µL of 0.1 M (pH 8.0) phosphate buffer, 2 µL of 0.075 M ATCI substrate, and 10 µL of drug or dual-drug combination. […] Enzymatic cleavage of the ATCI substrate was initiated by addition of 2 µL of 0.5 U/mL AChE enzyme. […] Under these assay conditions, a final color change was reached (results not included) such that an end-point assay measurement was taken [29].
These scoping experiments enabled us to quantify an approximate IC50 for subsequent dose-response experiments. […] These concentrations were also used for dual-drug combination experiments. Experiments undertaken in the absence of inhibitor were designated as 100% enzymatic activity. Assays were performed in duplicates from which a mean was calculated.
Percentage inhibition of AChE from in vitro assays in response to application of individual or dual-drug ChEIs were calculated using CompuSyn software (http://www.combosyn.com/index.html). […]

MTT cytotoxicity assay = type: cell-based, human; details: human, SH-SY5Y neuroblastoma cells; read-out: Cell Cytotoxicity Log IC50 (converted)
Protocol: (§1) A MTT assay was used to assess the cytotoxicity of either the individual drugs or dual-drug combinations using the SH-SY5Y neuroblastoma cell line. SH-SY5Y cells were seeded in 96-well plates (passage #15) at a cell density of 3 × 10^4 cells/well in DMEM containing 10% FBS. […] Plates were incubated for 4 h at 37 °C, before removal of the media and replacement with 1:1 (v/v) isopropanol:DMSO. […] Cell viability of cells treated with drugs was quantified by comparison to untreated control cells, set at 100% viability.
(§2) Values generated for IC50 and for the dual-drug CI were determined using CompuSyn software. […] For cell viability assays, a one-way ANOVA was performed to determine significant changes after treatments compared to control cell viability, set at 100%.

[2] = system: SH-SY5Y neuroblastoma cells; assay: MTT cytotoxicity assay; type: cell-based, human; details: SH-SY5Y, MTT, 48 h; significant change from control
Protocol: as §1, §2

[3] = compared to tacrine or berberine; cited from earlier work

Row | Compound | pIC50 [1] | IC50 at 48 h (MTT cytotoxicity assay) [µg/mL] | concentration needed to reduce cell viability (induce toxicity) [2] | oral bioavailability [3]
1 | COc1ccc2cc3[n+](cc2c1OC)CCc1cc2c(cc1-3)OCO2 [Ber, berberine hydrochloride] | 5.49 | 955 | ≥ 1 µM | –
2 | COc1ccc2c3c1O[C@H]1C[C@@H](O)C=C[C@@]31CCN(C)C2 [Gal, galantamine hydrobromide] | – | 12600 | ≥ 100 µM | relatively high
3 | Nc1c2c(nc3ccccc13)CCCC2 [Tac, tacrine hydrochloride] | – | 339 | at least 10 µM | –
